# Assay results reported in US11149033B2, “Heteroaryl compound, enantiomer, diastereomer or pharmaceutically acceptable salt thereof, and antiviral composition containing same as active ingredient” (priority 2016, dated 2021).
# Read-outs that look alike come from different tables or passages of the source.
# Tests used:
# B/Florida/04/2006 = assay: Antiviral activity (drug efficacy evaluation by concentration) against B/Florida/04/2006; type: cell-based, B type influenza virus
# [1] = system: A/California/07/2009 (H1N1); assay: Antiviral activity (drug efficacy evaluation by concentration) against A/California/07/2009 (H1N1); type: cell-based, A type influenza virus; conditions: Influenza A virus
# A/Perth/16/2009 (H3N2) = assay: Antiviral activity (drug efficacy evaluation by concentration) against A/Perth/16/2009 (H3N2); type: cell-based, A type influenza virus; conditions: Influenza A virus
# [2] = CC50, third EC50/CC50 column pair (c7), beside the EC50 of c6
# [3] = read-out: EC50 B/Florida/04/2006, B/Florida/04/2006
# [4] = H1N1, A/California/07/2009 (H1N1), read-out: EC50 A/California/07/2009 (H1N1)
# [5] = H3N2, A/Perth/16/2009 (H3N2), read-out: EC50 A/Perth/16/2009 (H3N2)
# [6] = CC50 B/Florida/04/2006, cytotoxicity in the B/Florida/04/2006 assay
SMILES,EC50 (B/Florida/04/2006),"EC50 ([1]; H1N1, read-out: EC50)","EC50 (A/Perth/16/2009 (H3N2); H3N2, read-out: EC50)",melting point,"CC50 (in vitro; CC50, beside the EC50 of c2)","CC50 (in vitro; CC50, beside the EC50 of c4)",CC50 (in vitro; [2]),EC50 (B/Florida/04/2006; [3]),"EC50 [1, 4]",EC50 (A/Perth/16/2009 (H3N2); [5]),CC50 (in vitro; [6])
"Fc1ccc(/C=C/c2nnc(Cc3ccc(Br)c(F)c3)o2)c(Cl)c1 [Compound 184, (E)-2-(4-bromo-3-fluorobenzyl)-5-(2-chloro-4-fluorostyryl)-1,3,4-oxadiazole]",> 50 µM,> 50 µM,> 50 µM,166.2 °C,> 50 µM,> 50 µM,> 50 µM,–,–,–,–
"Clc1ccc(/C=C/c2nnc(Cc3cccc(Br)c3)o2)c(Cl)c1 [Compound 192, 2-(3-bromobenzyl)-5-(2,4-dichlorostyryl)-1,3,4-oxadiazole]",5.49 µM,4.66 µM,2.6 µM,142.4 °C,> 50 µM,> 50 µM,> 50 µM,–,–,–,–
"Cc1nn(Cc2nnc(SCc3ccccc3-c3ccc(Cl)cc3)o2)c(C)c1Br [Compound 33, 2-((4-bromo-3,5-dimethyl-1H-pyrazol-1-yl)methyl)-5-(((4′-chloro-[1,1′-biphenyl]-2-yl)methyl)thio)-1,3,4-oxadiazole]",–,–,–,84.7 °C,–,–,–,1.46 µM,0.6 µM,0.5 µM,6.28 µM
"Brc1ccc(Nc2nnc(SCc3ccccc3-c3ccccc3)o2)cc1 [Compound 52, 5-(([1,1′-biphenyl]-2-ylmethyl)thio)-N-(4-bromophenyl)-1,3,4-oxadiazol-2-amine]",–,–,–,158.2 °C,–,–,–,16.3 µM,> 50 µM,8.11 µM,> 50 µM
"O=S(=O)(Cc1ccccc1-c1ccccc1)c1nnc(Cc2ccc(Br)cc2)o1 [Compound 60, 2-(([1,1′-biphenyl]-2-ylmethyl)sulfonyl)-5-(4-bromobenzyl)-1,3,4-oxadiazole]",–,–,–,134.2 °C,–,–,–,4.11 µM,12.1 µM,6.36 µM,8.46 µM
"COc1ccccc1CSc1nnc(Cn2nc(C)c(Br)c2C)o1 [Compound 10, 2-((4-bromo-3,5-dimethyl-1H-pyrazol-1-yl)methyl)-5-((2-methoxybenzyl)thio)-1,3,4-oxadiazole]",–,–,–,87.3 °C,–,–,–,15.5 µM,16.8 µM,18.4 µM,> 50 µM
"CC(C)c1ccccc1CCc1nnc(Nc2ccc(Br)cc2)o1 [Compound 84, N-(4-bromophenyl)-5-(2-isopropylphenethyl)-1,3,4-oxadiazol-2-amine]",> 50 µM,34.7 µM,41.7 µM,175.4 °C,> 50 µM,> 50 µM,> 50 µM,–,–,–,–
"Cc1cccc(C)c1Nc1nnc(C(=O)c2ccccc2)o1 [Compound 76, (5-((2,6-dimethylphenyl)amino)-1,3,4-oxadiazol-2-yl)(phenyl)methanone]",–,–,–,236.1 °C,–,–,–,> 50 µM,14.1 µM,14.1 µM,> 50 µM
"Cc1nn(Cc2nnc([S+]([O-])Cc3ccccc3-c3ccccc3)o2)c(C)c1Br (stereo not shown) [Compound 12, 2-(([1,1′-biphenyl]-2-ylmethyl)sulfinyl)-5-((4-bromo-3,5-dimethyl-1H-pyrazol-1-yl)methyl)-1,3,4-oxadiazole]",–,–,–,48.2 °C,–,–,–,2.61 µM,2.51 µM,3.26 µM,7.81 µM
"Cc1ccccc1Sc1nnc(Cn2nc(C)c(Br)c2C)o1 [Compound 53, 2-((4-bromo-3,5-dimethyl-1H-pyrazol-1-yl)methyl)-5-(o-tolylthio)-1,3,4-oxadiazole]",–,–,–,103.6 °C,–,–,–,8.94 µM,0.12 µM,8.57 µM,7.91 µM
"Cc1nn(Cc2nnc(SCc3cccc4ccccc34)o2)c(C)c1Br [Compound 8, 2-((4-bromo-3,5-dimethyl-1H-pyrazol-1-yl)methyl)-5-((naphthalen-1-ylmethyl)thio)-1,3,4-oxadiazole]",–,–,–,112.1 °C,–,–,–,7.48 µM,6.94 µM,10.5 µM,> 50 µM
"Fc1ccc(/C=C/c2nnc(Cc3ccc(Br)cc3)o2)c(Cl)c1 [Compound 86, (E)-2-(4-bromobenzyl)-5-(2-chloro-4-fluorostyryl)-1,3,4-oxadiazole]",42 µM,2.7 µM,45.7 µM,147.9 °C,> 50 µM,> 50 µM,> 50 µM,–,–,–,–
"Cc1nn(Cc2nnc(SCc3cccc(-c4ccccc4)c3)o2)c(C)c1Br [Compound 6, 2-(([1,1′-biphenyl]-3-ylmethyl)thio)-5-((4-bromo-3,5-dimethyl-1H-pyrazol-1-yl)methyl)-1,3,4-oxadiazole]",–,–,–,90.3 °C,–,–,–,3 µM,2.91 µM,2.74 µM,> 50 µM
"c1ccc(Nc2nnc(SCc3ccccc3-c3ccccc3)o2)cc1 [Compound 71, 5-(([1,1′-biphenyl]-2-ylmethyl)thio)-N-phenyl-1,3,4-oxadiazol-2-amine]",–,–,–,172.1 °C,–,–,–,22.8 µM,21 µM,14.2 µM,6.53 µM
"Cc1cc(Br)cc(C)c1Nc1nnc(SCc2ccccc2-c2ccccc2)o1 [Compound 61, 5-(([1,1′-biphenyl]-2-ylmethyl)thio)-N-(4-bromo-2,6-dimethylphenyl)-1,3,4-oxadiazol-2-amine]",–,–,–,211.2 °C,–,–,–,2.3 µM,2.3 µM,2.61 µM,4.02 µM
"Brc1ccc(Cc2nc(/C=C/c3ccccc3)no2)cc1 [Compound 183, (E)-5-(4-bromobenzyl)-3-styryl-1,2,4-oxadiazole]",1.86 µM,1.33 µM,0.904 µM,78.4 °C,> 50 µM,> 50 µM,> 50 µM,–,–,–,–
"Oc1ccccc1/C=C/c1nnc(Cc2ccc(Br)cc2)o1 [Compound 209, 2-(2-(5-(4-bromobenzyl)-1,3,4-oxadiazol-2-yl)vinyl)phenol]",> 50 µM,46.8 µM,28.6 µM,168.3 °C,> 50 µM,> 50 µM,> 50 µM,–,–,–,–
"CC(C)c1cccc(Cc2nnc(/C=C/c3ccc(F)cc3Cl)o2)c1 [Compound 182, (E)-2-(2-chloro-4-fluorostyryl)-5-(3-isopropylbenzyl)-1,3,4-oxadiazole]",0.549 µM,0.617 µM,0.373 µM,117.3 °C,> 50 µM,> 50 µM,> 50 µM,–,–,–,–
"Fc1ccc(/C=C/c2nnc(Cc3cccc(Br)c3)o2)c(Cl)c1 [Compound 178, (E)-2-(3-bromobenzyl)-5-(2-chloro-4-fluorostyryl)-1,3,4-oxadiazole]",0.95 µM,0.99 µM,0.75 µM,121.7 °C,> 50 µM,> 50 µM,> 50 µM,–,–,–,–
"Fc1ccccc1/C=C/c1nnc(Cc2cccc(Cl)c2)o1 [Compound 187, 2-(3-chlorobenzyl)-5-(2-fluorostyryl)-1,3,4-oxadiazole]",1.7 µM,1.89 µM,1.51 µM,117.3 °C,> 50 µM,> 50 µM,> 50 µM,–,–,–,–
"Cc1ccccc1CCc1nnc(Nc2ccc(F)c(Cl)c2)o1 [Compound 122, N-(3-chloro-4-fluorophenyl)-5-(2-methylphenethyl)-1,3,4-oxadiazol-2-amine]",> 50 µM,37.4 µM,43.9 µM,87 °C,> 50 µM,> 50 µM,–,–,–,–,–
